The conditions of data set [1]: two injections of 0.5 mL 5% silver nitrate into each iliac artery; hematoxylin-eosin stained sections.
Description: The animal was sacrificed according to approved protocol following the last injection. The arteries were removed and placed in 10% formalin without perfusion. 2 mm segments were embedded in paraffin, sectioned, and hematoxylin-eosin stained.
Data set [2] in a line: Distribution of a lipophilic compound (tacrolimus) after periadventitial delivery to coronary arteries, LC/MS of tissue. The conditions noted are these: for concentration at 48 h: swine, in vivo. The format is in vivo, swine. On the procedure:
Distribution of a lipophilic compound (tacrolimus): Eight swine underwent angiography. […] The two remaining arteries served as untreated controls. An untreated heart was used as a negative control. At 48 hours arteries were dissected from the musculature and perivascular fat, cut into 5 mm sections and analyzed by Liquid Chromatography/Mass Spectrometry against tacrolimus calibration standards containing homogenized untreated porcine heart tissue.

`O=[N+]([O-])[O-].[Ag+]` [Silver Nitrate]: the “staining: site of delivery and diffusion” value in data set [1] is “delivery outside the external elastic lamina of the vessels and diffusion around the circumference”.
Turning to `C=CC[C@@H]1/C=C(\C)C[C@H](C)C[C@H](OC)[C@H]2O[C@@](O)(C(=O)C(=O)N3CCCC[C@H]3C(=O)O[C@H](/C(C)=C/[C@@H]3CC[C@@H](O)[C@H](OC)C3)[C@H](C)[C@@H](O)CC1=O)[C@H](C)C[C@@H]2OC` [tacrolimus], the “persistence of drug in the artery” value in data set [2] (48 hours after injection, full length of the artery) was “detectable”. In addition, the “subjects with distribution to the entire coronary tree” value in data set [2] (periadventitial delivery, 48 hours) was 8/8. The concentration at 48 h in data set [2] (mean concentration in the remaining segments) worked out at 26 ng/g; in data set [2] (mean concentration within 1 cm of known injection sites), 64 ng/g; in data set [2] (mean level of tacrolimus in confirmed injected arteries), 55 ng/g; in data set [2] (mean level of tacrolimus in uninjected arteries of treated hearts) it was 27 ng/g.

Values taken from patent publication US20070078620A1, “Methods and kits for delivering pharmaceutical agents into the coronary vascular adventitia” (Mercator MedSystems Inc., priority 2002, published 2007).
